Source: PubChem BioAssay AID1963963 (Molecular Pharmacology Branch, DTP, NCI, 2024)

System: 958667-338-R-J2-PDC tumor spheroids viability
Experiment: Anticancer human tumor 958667-338-R-J2-PDC patient-derived colon adenocarcinoma cell line growth inhibition [PI3K]
Conditions: spheroids with HUVEC and MSC; for IC50: curve of first compound; for viability, T/C: stronger effect = lower value
Procedure, shortened: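 Agents were dosed from a top concentration near clinical Cmax (otherwise 10 microM) in half-log decrements, alone or combined with PI3K inhibitors. The spheroids contain tumor cells plus endothelial (HUVEC) and MSC stroma; viability is measured.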
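Also: spheroids exposed to compounds for seven days before readout.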

`CC1(C)CCC(Nc2ncc(C(F)(F)F)c(-c3c[nH]c4c(P(C)(C)=O)c(C#N)ccc34)n2)CN1` (configuration not stated) + Cc1nc(NC(=O)N2CCCC2C(N)=O)sc1-c1ccnc(C(C)(C)C(F)(F)F)c1 gave an IC50 (second compound 0.0316 µM) of 6.39 µM, an IC50 (second compound 0.1 µM) of 4.53 µM and an IC50 (second compound 0.316 µM) of 4.09 µM. The IC50 (second compound 1 µM) was 3.33 µM, the IC50 (second compound 3.16 µM) was 2.58 µM and the IC50 (second compound 10 µM) was 1.04 µM. For the same compound, the viability, T/C (second compound 0.0316 µM, first compound 0.0316 µM) was 108%, the viability, T/C (second compound 0.0316 µM, first compound 0.1 µM) was 136% and the viability, T/C (second compound 0.0316 µM, first compound 0.316 µM) was 84%. It also gave a viability, T/C (second compound 0.0316 µM, first compound 1 µM) of 72.4%, a viability, T/C (second compound 0.0316 µM, first compound 3.16 µM) of 71.4% and a viability, T/C (second compound 0.0316 µM, first compound 10 µM) of 39%. For the same compound, the viability, T/C (second compound 0.1 µM, first compound 0.0316 µM) was 140%, the viability, T/C (second compound 0.1 µM, first compound 0.1 µM) was 112% and the viability, T/C (second compound 0.1 µM, first compound 0.316 µM) was 83.5%. The viability, T/C (second compound 0.1 µM, first compound 1 µM) was 72.2%, the viability, T/C (second compound 0.1 µM, first compound 3.16 µM) was 55.9% and the viability, T/C (second compound 0.1 µM, first compound 10 µM) was 40.3%. It also gave a viability, T/C (second compound 0.316 µM, first compound 0.0316 µM) of 119%, a viability, T/C (second compound 0.316 µM, first compound 0.1 µM) of 79.5% and a viability, T/C (second compound 0.316 µM, first compound 0.316 µM) of 96.2%. It also gave a viability, T/C (second compound 0.316 µM, first compound 1 µM) of 59.4%, a viability, T/C (second compound 0.316 µM, first compound 3.16 µM) of 67.1% and a viability, T/C (second compound 0.316 µM, first compound 10 µM) of 30.9%. For the same compound, the viability, T/C (second compound 1 µM, first compound 0.0316 µM) was 103%, the viability, T/C (second compound 1 µM, first compound 0.1 µM) was 82% and the viability, T/C (second compound 1 µM, first compound 0.316 µM) was 86.5%. For the same compound, the viability, T/C (second compound 1 µM, first compound 1 µM) was 67.6%, the viability, T/C (second compound 1 µM, first compound 3.16 µM) was 55.2% and the viability, T/C (second compound 1 µM, first compound 10 µM) was 22.8%. For the same compound, the viability, T/C (second compound 3.16 µM, first compound 0.0316 µM) was 80.5%, the viability, T/C (second compound 3.16 µM, first compound 0.1 µM) was 83.9% and the viability, T/C (second compound 3.16 µM, first compound 0.316 µM) was 73.5%. For the same compound, the viability, T/C (second compound 3.16 µM, first compound 1 µM) was 55.3%, the viability, T/C (second compound 3.16 µM, first compound 3.16 µM) was 52.6% and the viability, T/C (second compound 3.16 µM, first compound 10 µM) was 25.2%. The viability, T/C (second compound 10 µM, first compound 0.0316 µM) was 77.5%, the viability, T/C (second compound 10 µM, first compound 0.1 µM) was 63.2% and the viability, T/C (second compound 10 µM, first compound 0.316 µM) was 45.5%. It also gave a viability, T/C (second compound 10 µM, first compound 1 µM) of 57.1%, a viability, T/C (second compound 10 µM, first compound 3.16 µM) of 44.3% and a viability, T/C (second compound 10 µM, first compound 10 µM) of 14.5%.
